US12043632B2, “6-heteroaryloxy benzimidazoles and azabenzimidazoles as JAK2 inhibitors” (Ajax Therapeutics, Inc., priority 2020, dated 2024)

target: T1, JAK2 (JH1domain-catalytic, Y1007F,Y1008F) kinase (Homo sapiens, UniProt O60674, Y1007F/Y1008F); experiment: JAK2 JH1 Domain Binding Assay; details: qPCR readout
T1 construct: JAK2 (JH1domain-catalytic, Y1007F,Y1008F) kinase was expressed as N-terminal fusion; made in house; host or cells: transiently transfected HEK293 cells
T1 sequence (O60674 849-1124 Y1007F/Y1008F limits assumed): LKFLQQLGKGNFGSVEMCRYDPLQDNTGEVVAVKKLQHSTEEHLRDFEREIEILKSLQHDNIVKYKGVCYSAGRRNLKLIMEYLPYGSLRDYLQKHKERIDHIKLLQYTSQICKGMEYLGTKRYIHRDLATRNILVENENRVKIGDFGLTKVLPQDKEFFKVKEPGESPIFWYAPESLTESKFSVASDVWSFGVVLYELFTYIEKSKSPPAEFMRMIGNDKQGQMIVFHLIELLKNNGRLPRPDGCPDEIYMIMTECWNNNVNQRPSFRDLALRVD

CNc1nccn2ncc(Oc3cnc4nc(Nc5cc(C6CC6)cn(C)c5=O)n(C)c4c3Cl)c12 [Example I-134, 3-((7-chloro-1-methyl-6-((4-(methylamino)pyrazolo[1,5-a]pyrazin-3-yl)oxy)-1H-imidazo[4,5-b]pyridin-2-yl)amino)-5-cyclopropyl-1-methylpyridin-2(1H)-one] and COCCOc1nccn2ncc(Oc3cnc4nc(Nc5cc(C6CC6)cn(C)c5=O)n(C)c4c3Cl)c12 [Example I-135, 3-((7-chloro-6-((4-(2-methoxyethoxy)pyrazolo[1,5-a]pyrazin-3-yl)oxy)-1-methyl-1H-imidazo[4,5-b]pyridin-2-yl)amino)-5-cyclopropyl-1-methylpyridin-2(1H)-one] cannot be ordered by Kd: less than 10 nM for the first, less than 10 nM for the second.

Cn1cc(C2CC2)cc(Nc2nc3ncc(Oc4cnn5ccnc(OCCN6CCOCC6)c45)c(Cl)c3n2C)c1=O [Example I-136, 3-((7-chloro-1-methyl-6-((4-(2-morpholinoethoxy)pyrazolo[1,5-a]pyrazin-3-yl)oxy)-1H-imidazo[4,5-b]pyridin-2-yl)amino)-5-cyclopropyl-1-methylpyridin-2(1H)-one] and Cn1c(Nc2cc(C(F)(F)F)cn(CCO)c2=O)nc2ncc(Oc3cnn4ccnc(N5CCOCC5)c34)c(Cl)c21 [Example I-140, 3-((7-chloro-1-methyl-6-((4-morpholinopyrazolo[1,5-a]pyrazin-3-yl)oxy)-1H-imidazo[4,5-b]pyridin-2-yl)amino)-1-(2-hydroxyethyl)-5-(trifluoromethyl)pyridin-2(1H)-one] fall in the same range of Kd: 10 to 50 nM for the first, 10 to 50 nM for the second.

Compared with Cn1c(Nc2cc(C(C)(C)C)n([C@H]3CCOC3)n2)nc2ncc(Oc3cnn4ccncc34)c(C#N)c21 [Example I-137, (S)-2-((5-(tert-butyl)-1-(tetrahydrofuran-3-yl)-1H-pyrazol-3-yl)amino)-1-methyl-6-(pyrazolo[1,5-a]pyrazin-3-yloxy)-1H-imidazo[4,5-b]pyridine-7-carbonitrile], CC(=O)N1CC2(CC(n3nc(Nc4nc5ncc(Oc6cnn7ccncc67)c(Cl)c5n4C)cc3C(F)(F)F)C2)C1 [Example I-156, 1-(6-(3-((7-chloro-1-methyl-6-(pyrazolo[1,5-a]pyrazin-3-yloxy)-1H-imidazo[4,5-b]pyridin-2-yl)amino)-5-(trifluoromethyl)-1H-pyrazol-1-yl)-2-azaspiro[3.3]heptan-2-yl)ethan-1-one] is lower in Kd: 10 to 50 nM for the first, less than 10 nM for the second.

Compared with Cn1c(Nc2cc(C(F)(F)F)cn(CCCN3CCCC(F)(F)C3)c2=O)nc2ncc(Oc3cnn4ccncc34)c(Cl)c21 [Example I-138, 3-((7-chloro-1-methyl-6-(pyrazolo[1,5-a]pyrazin-3-yloxy)-1H-imidazo[4,5-b]pyridin-2-yl)amino)-1-(3-(3,3-difluoropiperidin-1-yl)propyl)-5-(trifluoromethyl)pyridin-2(1H)-one], Cn1cc(C(F)(F)C(F)(F)F)cc(Nc2nc3ncc(Oc4cnn5ccncc45)c(Cl)c3n2C)c1=O [Example I-144, 3-((7-chloro-1-methyl-6-(pyrazolo[1,5-a]pyrazin-3-yloxy)-1H-imidazo[4,5-b]pyridin-2-yl)amino)-1-methyl-5-(perfluoroethyl)pyridin-2(1H)-one] is lower in Kd: 10 to 50 nM for the first, less than 10 nM for the second. The second binds more tightly here.

Cn1c(Nc2cc(C3CC3)cn(CCO)c2=O)nc2ncc(Oc3cnn4cccc(F)c34)c(Cl)c21 [Example I-141, 3-((7-chloro-6-((4-fluoropyrazolo[1,5-a]pyridin-3-yl)oxy)-1-methyl-1H-imidazo[4,5-b]pyridin-2-yl)amino)-5-cyclopropyl-1-(2-hydroxyethyl)pyridin-2(1H)-one] and COCCOc1ccc2c(Oc3cnc4nc(Nc5cc(C6CC6)cn(CCO)c5=O)n(C)c4c3Cl)cnn2c1 [Example I-155, 3-((7-chloro-6-((6-(2-methoxyethoxy)pyrazolo[1,5-a]pyridin-3-yl)oxy)-1-methyl-1H-imidazo[4,5-b]pyridin-2-yl)amino)-5-cyclopropyl-1-(2-hydroxyethyl)pyridin-2(1H)-one] cannot be ordered by Kd: less than 10 nM for the first, less than 10 nM for the second.

Cn1c(Nc2cc(C3CC3)nn([C@@H]3CCOC3)c2=O)nc2ncc(Oc3cnn4ccccc34)c(Cl)c21 [Example I-142, (R)-4-((7-chloro-1-methyl-6-(pyrazolo[1,5-a]pyridin-3-yloxy)-1H-imidazo[4,5-b]pyridin-2-yl)amino)-6-cyclopropyl-2-(tetrahydrofuran-3-yl)pyridazin-3(2H)-one] and Cn1c(Nc2cc(C3CC3)nn([C@H]3CCOC3)c2=O)nc2ncc(Oc3cnn4ccccc34)c(Cl)c21 [Example I-143, (S)-4-((7-chloro-1-methyl-6-(pyrazolo[1,5-a]pyridin-3-yloxy)-1H-imidazo[4,5-b]pyridin-2-yl)amino)-6-cyclopropyl-2-(tetrahydrofuran-3-yl)pyridazin-3(2H)-one] cannot be ordered by Kd: less than 10 nM for the first, less than 10 nM for the second.

Compared with Cn1c(Nc2cc(C(=O)NCCN3CCOCC3)cc(C(F)(F)F)c2)nc2ncc(Oc3cnn4ccccc34)c(Cl)c21 [Example I-145, 3-((7-chloro-1-methyl-6-(pyrazolo[1,5-a]pyridin-3-yloxy)-1H-imidazo[4,5-b]pyridin-2-yl)amino)-N-(2-morpholinoethyl)-5-(trifluoromethyl)benzamide], Cn1c(Nc2ccc(CN3CCOCC3)c(C(F)(F)F)c2)nc2ncc(Oc3cnn4ccncc34)c(Cl)c21 [Example I-149, 7-chloro-1-methyl-N-(4-(morpholinomethyl)-3-(trifluoromethyl)phenyl)-6-(pyrazolo[1,5-a]pyrazin-3-yloxy)-1H-imidazo[4,5-b]pyridin-2-amine] is lower in Kd: 10 to 50 nM for the first, less than 10 nM for the second. The second binds more tightly here.

CCN1CCN(Cc2ccc(Nc3nc4ncc(Oc5cnn6ccncc56)c(Cl)c4n3C)cc2C(F)(F)F)CC1 [Example I-146, 7-chloro-N-(4-((4-ethylpiperazin-1-yl)methyl)-3-(trifluoromethyl)phenyl)-1-methyl-6-(pyrazolo[1,5-a]pyrazin-3-yloxy)-1H-imidazo[4,5-b]pyridin-2-amine] and CN1C(=O)c2cc(Nc3nc4ncc(Oc5cnn6ccncc56)c(Cl)c4n3C)cc(C(F)(F)F)c2C1(C)C [Example I-154, 6-((7-chloro-1-methyl-6-(pyrazolo[1,5-a]pyrazin-3-yloxy)-1H-imidazo[4,5-b]pyridin-2-yl)amino)-2,3,3-trimethyl-4-(trifluoromethyl)isoindolin-1-one] cannot be ordered by Kd: less than 10 nM for the first, less than 10 nM for the second.

Cn1c(Nc2cc(C3CC3)cn([C@H]3C[C@@H](O)C3)c2=O)nc2ncc(Oc3cnn4cc(F)ccc34)c(Cl)c21 [Example I-151, cis-3-((7-chloro-6-((6-fluoropyrazolo[1,5-a]pyridin-3-yl)oxy)-1-methyl-1H-imidazo[4,5-b]pyridin-2-yl)amino)-5-cyclopropyl-1-(3-hydroxycyclobutyl)pyridin-2(1H)-one] and Cn1c(Nc2cc(C3CC3)cn([C@H]3C[C@H](O)C3)c2=O)nc2ncc(Oc3cnn4cc(F)ccc34)c(Cl)c21 [Example I-152, trans-3-((7-chloro-6-((6-fluoropyrazolo[1,5-a]pyridin-3-yl)oxy)-1-methyl-1H-imidazo[4,5-b]pyridin-2-yl)amino)-5-cyclopropyl-1-(3-hydroxycyclobutyl)pyridin-2(1H)-one] cannot be ordered by Kd: less than 10 nM for the first, less than 10 nM for the second.

For COCCOc1ccc2c(Oc3cnc4nc(Nc5cc(C6CC6)nn(CCO)c5=O)n(C)c4c3Cl)cnn2c1 [Example I-153, 4-((7-chloro-6-((6-(2-methoxyethoxy)pyrazolo[1,5-a]pyridin-3-yl)oxy)-1-methyl-1H-imidazo[4,5-b]pyridin-2-yl)amino)-6-cyclopropyl-2-(2-hydroxyethyl)pyridazin-3(2H)-one], the Kd was less than 10 nM.
